In this assay the target is T1, Microsomal triglyceride transfer protein (MTP) from human small intestine microsome (Homo sapiens, UniProt P55157).
T1 construct: Human small intestine microsome was dialyzed against 10 mM phosphate buffer; tissue Tissue Transforming Technologies, Inc; host or cells: human small intestine microsome
T1 sequence (P55157 19-894): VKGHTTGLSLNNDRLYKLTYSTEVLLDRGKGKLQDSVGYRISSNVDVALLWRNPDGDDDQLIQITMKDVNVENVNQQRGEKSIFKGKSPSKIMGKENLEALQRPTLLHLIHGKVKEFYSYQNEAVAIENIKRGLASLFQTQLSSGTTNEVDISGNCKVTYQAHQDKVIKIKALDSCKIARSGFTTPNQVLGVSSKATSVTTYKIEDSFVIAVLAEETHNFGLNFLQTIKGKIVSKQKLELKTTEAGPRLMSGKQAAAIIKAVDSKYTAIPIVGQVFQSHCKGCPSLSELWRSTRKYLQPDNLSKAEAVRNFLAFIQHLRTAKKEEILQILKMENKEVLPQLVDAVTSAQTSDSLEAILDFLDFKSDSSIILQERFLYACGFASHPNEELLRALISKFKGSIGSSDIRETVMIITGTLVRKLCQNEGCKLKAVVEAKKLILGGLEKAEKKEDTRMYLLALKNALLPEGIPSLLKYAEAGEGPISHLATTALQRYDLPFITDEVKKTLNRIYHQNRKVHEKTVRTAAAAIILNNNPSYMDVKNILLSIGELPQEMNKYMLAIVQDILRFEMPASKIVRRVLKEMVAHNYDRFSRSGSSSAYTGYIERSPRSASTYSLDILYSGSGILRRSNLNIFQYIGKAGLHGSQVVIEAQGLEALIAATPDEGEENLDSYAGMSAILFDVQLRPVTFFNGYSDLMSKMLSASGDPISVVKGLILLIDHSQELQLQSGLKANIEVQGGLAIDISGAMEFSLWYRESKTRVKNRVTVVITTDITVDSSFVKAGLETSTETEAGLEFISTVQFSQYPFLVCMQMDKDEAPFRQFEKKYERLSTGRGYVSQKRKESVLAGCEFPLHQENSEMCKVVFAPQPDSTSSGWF
T1 sequence (P07237 18-508 partner): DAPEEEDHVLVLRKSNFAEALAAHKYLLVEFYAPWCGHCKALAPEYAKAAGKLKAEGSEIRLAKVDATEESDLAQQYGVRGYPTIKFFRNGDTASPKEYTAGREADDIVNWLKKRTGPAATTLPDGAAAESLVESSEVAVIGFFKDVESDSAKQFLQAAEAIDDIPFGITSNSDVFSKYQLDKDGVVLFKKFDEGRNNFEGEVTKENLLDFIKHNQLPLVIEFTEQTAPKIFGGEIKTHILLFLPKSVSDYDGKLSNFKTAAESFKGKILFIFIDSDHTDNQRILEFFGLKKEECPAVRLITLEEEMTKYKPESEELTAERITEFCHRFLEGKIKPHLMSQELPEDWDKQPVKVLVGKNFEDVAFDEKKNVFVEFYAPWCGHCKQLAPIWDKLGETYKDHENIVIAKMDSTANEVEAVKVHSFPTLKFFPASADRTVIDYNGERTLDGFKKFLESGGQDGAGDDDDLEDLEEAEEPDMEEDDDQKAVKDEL
Description: Inhibition test of interliposomal triglyceride (TG) transfer activity by MTP. The assay is classed as biochemical. The following applies: purified MTP from human small intestine microsome, 37° C., 1.5 hours. The protocol:
Microsomal triglyceride transfer protein (MTP) from human small intestine microsome (manufactured by Tissue Transforming Technologies, Inc.) was purified in such a way described below. Human small intestine microsome was dialyzed against 10 mM phosphate buffer (300 mL, pH 6.8) twice for about 2 hours and once for further not less than 12 hours, at about 4° C. After dialysis, the mixture was centrifuged at 4° C. and 15,000×g for 5 minutes and then the supernatant was recovered. The previously recovered supernatant was purified by column chromatography on diethylaminoethyl (DEAE) Sepharose using FPLC (Fast Performance Liquid Chromatography) system, and the purified MTP was used for the test as described below.
Small unilamellar-vesicle (SUV) liposome (hereinafter described as donor, containing 0.25% (mol/mol) triolein and 5% (mol/mol) cardiolipin) constituted by triolein labeled with ^14C and non-labeled SUV liposome (hereinafter described as acceptor, containing […] triolein) were prepared in such a way described below.
Firstly, in order to prepare the donor, there were volatilized under a stream of nitrogen gas a phosphatidylcholine solution containing phosphatidylcholine labeled with ^3H, a cardiolipin solution, and a triolein solution containing triolein labeled with ^14C (each solution had been already dissolved in an appropriate organic solvent), or in order to prepare the acceptor, there were volatilized under nitrogen flow a phosphatidylcholine solution containing phosphatidylcholine labeled with ^3H and a cardiolipin solution (each solution had been already dissolved in an appropriate organic solvent). An appropriate amount of a reaction buffer (15 mM Tris-HCl buffer containing 1 mM EDTA.Na2, 40 mM NaCl, and 0.5% (w/v) bovine serum albumin, pH 7.4) was added thereto to be emulsified. The emulsions were treated with ultrasonication under ice-cooling and centrifuged at 4° C. and 159,000×g for 2 hours. Each of the resulting supernatant was used for donor or acceptor.
Each radioactivity in the acceptor and the donor was measured by liquid scintillation counter, and a mixed solution of the acceptor and the donor was prepared with a reaction buffer so as to be a donor-derived radioactivity of 16,000 dpm/400 μL and a acceptor-derived radioactivity of 4,000 dpm/[…]. 400 μL of the mixed solution of the donor and the acceptor, 45 μL of the reaction buffer, 50 μL of MTP (20 μg/mL), and 5 μL of a sample dissolved in DMSO (dimethyl sulfoxide) or 5 μL of DMSO was mixed (total amount: 500 μL). The mixture was incubated at 37° C. for 1.5 hours. After completion of the incubation, 1.25 mL of a suspension of DEAE cellulose (66.7% (v/v)) in 15 mM Tris-HCl buffer (pH 7.4) containing 1 mM EDTA.Na2 was added to the above solution. The mixture was centrifuged to separate the donor (adsorbed on the DEAE cellulose to precipitate) and the acceptor (the supernatant). The radioactivity in the acceptor was measured by liquid scintillation counter. The value obtained by subtracting the radioactivity in a blank group from the radioactivity in the acceptor of a DMSO group was determined as MTP-mediated TG transfer activity, and it was compared with the value obtained by subtracting the radioactivity in the blank group from the radioactivity in a sample group. Here, the blank was prepared by adding 10 mM phosphate buffer (pH 6.8) containing 250 mM NaCl in place of MTP. Inhibition rate (%) was calculated from values obtained according to the following equation. Inhibition rate(%)=(1 minus((radioactivity of sample group minus radioactivity of blank group)/(radioactivity of DMSO group minus radioactivity of blank group)))×100.
50% Inhibition rate (IC50) was determined on the basis of the above equation.
As to `CC(C)OC(=O)c1ccc(OC(=O)CCCc2ccc(NC(=O)c3cccnc3-c3ccc(C(F)(F)F)cc3)c(C(=O)N(C)C)c2)cc1` [Compound 1-31, 4-[4-(3-dimethylcarbamoyl-4-{[2-(4-trifluoromethylphenyl)pyridine-3-carbonyl]amino}phenyl)butyryloxy]benzoic acid isopropyl ester], the concentration for half-maximal inhibition (IC50) (commonly the concentration at which inhibition is half-maximal) is 10 to 100 nM.

`COC(=O)c1ccc(OC(=O)CCCc2ccc(NC(=O)c3ccc(C)nc3-c3ccc(C(F)(F)F)cc3)c(C(=O)N(C)C)c2)cn1` [Compound 1-32, 5-[4-(3-dimethylcarbamoyl-4-{[6-methyl-2-(4-trifluoromethylphenyl)pyridine-3-carbonyl]amino}phenyl)butyryloxy]pyridine-2-carboxylic acid methyl ester] gave an IC50 of 100 to 1000 nM.

On to `COC(=O)c1ccc(OC(=O)CCCc2ccc(NC(=O)c3ccccc3-c3ccc(C(F)(F)F)cc3)c(C(=O)N(C)C)c2)c(C(=O)OC)c1` [Compound 1-33, 4-(4-{3-dimethylcarbamoyl-4-[(4′-trifluoromethylbiphenyl-2-carbonyl)amino]phenyl}butyryloxy)isophthalic acid dimethyl ester], for which the half-maximal inhibitory concentration (IC50) was under 10 nM.

The molecule `COC(=O)c1cc(C)c(OC(=O)CCCc2ccc(NC(=O)c3ccccc3-c3ccc(C(F)(F)F)cc3)c(C(=O)N(C)C)c2)c(Cl)c1` [Compound 1-34, 3-chloro-4-(4-{3-dimethylcarbamoyl-4-[(4′-trifluoromethylbiphenyl-2-carbonyl)amino]phenyl}butyryloxy)-5-methylbenzoic acid methyl ester] yielded a 50% inhibitory concentration (IC50) of under 10 nM.

For the molecule `COC(=O)c1cc(C)c(OC(=O)CCCc2ccc(NC(=O)c3ccc(C)nc3-c3ccc(C(F)(F)F)cc3)c(C(=O)N(C)C)c2)c(Cl)c1` [Compound 1-35, 3-chloro-4-[4-(3-dimethylcarbamoyl-4-{[6-methyl-2-(4-trifluoromethylphenyl)pyridine-3-carbonyl]amino}phenyl)butyryloxy]-5-methylbenzoic acid methyl ester], the IC50 was under 10 nM.

`COC(=O)c1cc(Cl)c(OC(=O)CCCc2ccc(NC(=O)c3ccc(C)nc3-c3ccc(C(F)(F)F)cc3)c(C(=O)N(C)C)c2)c(OC)c1` [Compound 1-36, 3-chloro-4-[4-(3-dimethylcarbamoyl-4-{[6-methyl-2-(4-trifluoromethylphenyl)pyridine-3-carbonyl]amino}phenyl)butyryloxy]-5-methoxybenzoic acid methyl ester] showed an IC50 of under 10 nM.

The molecule `COc1cc(C(=O)OC(C)C)cc(Cl)c1OC(=O)CCCc1ccc(NC(=O)c2ccc(C)nc2-c2ccc(C(F)(F)F)cc2)c(C(=O)N(C)C)c1` [Compound 1-37, 3-chloro-4-[4-(3-dimethylcarbamoyl-4-{[6-methyl-2-(4-trifluoromethylphenyl)pyridine-3-carbonyl]amino}phenyl)butyryloxy]-5-methoxybenzoic acid isopropyl ester] returned a concentration for half-maximal inhibition (IC50) of under 10 nM.

Regarding `COc1cc(C(=O)OC(C)C)cc(F)c1OC(=O)CCCc1ccc(NC(=O)c2ccc(C)nc2-c2ccc(C(F)(F)F)cc2)c(C(=O)N(C)C)c1` [Compound 1-38, 4-[4-(3-dimethylcarbamoyl-4-{[6-methyl-2-(4-trifluoromethylphenyl)pyridine-3-carbonyl]amino}phenyl)butyryloxy]-3-fluoro-5-methoxybenzoic acid isopropyl ester], the IC50 fell in the range of 10 to 100 nM.

`COC(=O)c1cc(OC)c(OC(=O)CCCc2ccc(NC(=O)c3ccc(C)nc3-c3ccc(C(F)(F)F)cc3)c(C(=O)N(C)C)c2)c(OC)c1` [Compound 1-39, 4-[4-(3-dimethylcarbamoyl-4-{[6-methyl-2-(4-trifluoromethylphenyl)pyridine-3-carbonyl]amino}phenyl)butyryloxy]-3,5-dimethoxybenzoic acid methyl ester] gave an IC50 of under 10 nM.

Take `CCOc1cc(C(=O)OC)cc(Cl)c1OC(=O)CCCc1ccc(NC(=O)c2ccc(C)nc2-c2ccc(C(F)(F)F)cc2)c(C(=O)N(C)C)c1` [Compound 1-40, 3-chloro-4-[4-(3-dimethylcarbamoyl-4-{[6-methyl-2-(4-trifluoromethylphenyl)pyridine-3-carbonyl]amino}phenyl)butyryloxy]-5-ethoxybenzoic acid methyl ester]: the half-inhibitory concentration (IC50) was under 10 nM.

`COC(=O)c1cc(C)c(OC(=O)CCCc2ccc(NC(=O)c3ccc(C)nc3-c3ccc(C(F)(F)F)cc3)c(C(=O)N(C)C)c2)c(F)c1` [Compound 1-41, 4-[4-(3-dimethylcarbamoyl-4-{[6-methyl-2-(4-trifluoromethylphenyl)pyridine-3-carbonyl]amino}phenyl)butyryloxy]-3-fluoro-5-methylbenzoic acid methyl ester] came in with a concentration for half-maximal inhibition (IC50) of under 10 nM.

Regarding `CCc1cc(C(=O)OC)cc(F)c1OC(=O)CCCc1ccc(NC(=O)c2ccc(C)nc2-c2ccc(C(F)(F)F)cc2)c(C(=O)N(C)C)c1` [Compound 1-42, 4-[4-(3-dimethylcarbamoyl-4-{[6-methyl-2-(4-trifluoromethylphenyl)pyridine-3-carbonyl]amino}phenyl)butyryloxy]-3-ethyl-5-fluorobenzoic acid methyl ester], the IC50 was under 10 nM.

`CCOC(=O)c1cc(OC)c(OC(=O)CCCc2ccc(NC(=O)c3ccc(C)nc3-c3ccc(C(F)(F)F)cc3)c(C(=O)N(C)C)c2)c(OC)c1` [Compound 1-43, 4-[4-(3-dimethylcarbamoyl-4-{[6-methyl-2-(4-trifluoromethylphenyl)pyridine-3-carbonyl]amino}phenyl)butyryloxy]-3,5-dimethoxybenzoic acid ethyl ester] yielded a 50% inhibitory concentration (IC50) of under 10 nM.

`COc1cc(C(=O)OC(C)C)cc(OC)c1OC(=O)CCCc1ccc(NC(=O)c2ccc(C)nc2-c2ccc(C(F)(F)F)cc2)c(C(=O)N(C)C)c1` [Compound 1-44, 4-[4-(3-dimethylcarbamoyl-4-{[6-methyl-2-(4-trifluoromethylphenyl)pyridine-3-carbonyl]amino}phenyl)butyryloxy]-3,5-dimethoxybenzoic acid isopropyl ester] showed a 50% inhibitory concentration (IC50) of under 10 nM.

In turn, `COC(=O)c1cc(C)c(OC(=O)CCCc2ccc(NC(=O)c3ccc(C)nc3-c3ccc(C(F)(F)F)cc3)c(C(=O)N(C)C)c2)c(C(F)(F)F)c1` [Compound 1-45, 4-[4-(3-dimethylcarbamoyl-4-{[6-methyl-2-(4-trifluoromethylphenyl)pyridine-3-carbonyl]amino}phenyl)butyryloxy]-3-methyl-5-trifluoromethylbenzoic acid methyl ester] gave an IC50 of under 10 nM.

`COC(=O)c1cc(C)c(OC(=O)CCCc2ccc(NC(=O)c3ccc(C)nc3-c3ccc(C(F)(F)F)cc3)c(C(=O)N(C)C)c2)c(OC)c1` [Compound 1-46, 4-[4-(3-dimethylcarbamoyl-4-{[6-methyl-2-(4-trifluoromethylphenyl)pyridine-3-carbonyl]amino}phenyl)butyryloxy]-3-methoxy-5-methylbenzoic acid methyl ester] showed an IC50 of under 10 nM.

Turning to `COC(=O)c1cc(OC)c(OC(=O)CCCc2ccc(NC(=O)c3ccc(C)nc3-c3ccc(C(F)(F)F)cc3)c(C(=O)N(C)C)c2)c(C(F)(F)F)c1` [Compound 1-47, 4-[4-(3-dimethylcarbamoyl-4-{[6-methyl-2-(4-trifluoromethylphenyl)pyridine-3-carbonyl]amino}phenyl)butyryloxy]-3-methoxy-5-trifluoromethylbenzoic acid methyl ester], the half-maximal inhibitory concentration (IC50) is under 10 nM.

As to `CCOC(=O)c1cc(Cl)c(OC(=O)CCCc2ccc(NC(=O)c3ccc(C)nc3-c3ccc(C(F)(F)F)cc3)c(C(=O)N(C)C)c2)c(OC)c1` [Compound 1-48, 3-chloro-4-[4-(3-dimethylcarbamoyl-4-{[6-methyl-2-(4-trifluoromethylphenyl)pyridine-3-carbonyl]amino}phenyl)butyryloxy]-5-methoxybenzoic acid ethyl ester], the IC50 is under 10 nM.

Values taken from patent US8101774B2, “Ester derivatives and medicinal use thereof” (Japan Tobacco Inc., priority 2004, dated 2012).
